“Also recorded” adds a separate entry of the source.
Experiments:
Assay type in all cases: in vivo, human
[1] = test system: uterine leiomyomas; test: Oral absorption-enhanced DIM in women with uterine leiomyomas, tumor volume by serial pelvic ultrasound; conditions: for Post-DIM Treatment Tumor Volume: oral absorption-enhanced DIM
Procedure: Expected results are clinical improvement in symptoms and reduction of leiomyoma size documented in serial sonograms. […] Women with uterine leiomyomas have been selected based on the findings of abnormal uterine sonograms showing measurable leiomyoma documented on more than one occasion. Three subjects were proceeding to provide a baseline 12-hour urine collection and began to take absorbable DIM 150 to 450 mg [37.5-112 mg actual DIM] twice daily for 3-6 months. Two women have completed participation in a preliminary study, completing 2 and 6 month treatment periods. Subject A was a multiparous person with regular menstrual periods, taking thyroid hormone replacement to correct primary hypothyroidism and using no other medications. Subject B was a person taking no medications with regular periods. After informed consent, a pretreatment ultrasound was obtained for each subject. Each subject provided a 12 or 24 hour urine specimen which was frozen. Subject A began taking 2 capsules twice daily of absorption-enhanced DIM (BioResponse, LLC, Boulder Colo.) providing DIM at […]. Subject B took 3 capsules twice daily of absorption-enhanced DIM (BioResponse, LLC, Boulder Colo.) providing DIM at […]. After 2 months of treatment, Subject A was re-evaluated by the same ultrasound technician using the same equipment and at the same phase of their menstrual cycle. A post treatment urine was also obtained, collected at the same point in the menstrual cycle as the baseline urine sample. Similarly, Subject B was re-evaluated after 6 months of treatment using absorption-enhanced DIM (BioResponse-DIM). They took a higher twice daily dose providing […]. Their re-evaluation included pelvic ultrasonography following a series of 3 pre-treatment pelvic ultrasound evaluations all performed with the same equipment. Like Subject A, Subject B provided a before and after DIM treatment urine sample. The pelvic ultrasound data were analysed using a mathematical formula to calculate the pre-treatment and post-treatment volume of individual leiomyoma based on the widest diameter and the diameter perpendicular to this measured in centimeters (cm). A calculation of individual tumor volume was performed, treating each tumor as an ovoid mass, using the formula: V=4/3π(H/2)^2(L/2), where V=volume in cubic centimeters (cm^3), H=tumor height in centimeters (cm), and L=tumor length in centimeters (cm). This method provided individual tumor volumes in cubic centimeters (cm^3).

[2] = test system: estrogen metabolites in urine; test: GCMS assay of urinary estrogen metabolites before and after DIM treatment; conditions: after vs before DIM
Procedure: After informed consent, a pretreatment ultrasound was obtained for each subject. Each subject provided a 12 or 24 hour urine specimen which was frozen. Subject A began taking 2 capsules twice daily of absorption-enhanced DIM (BioResponse, LLC, Boulder Colo.) providing DIM at […]. Subject B took 3 capsules twice daily of absorption-enhanced DIM (BioResponse, LLC, Boulder Colo.) providing DIM at […]. After 2 months of treatment, Subject A was re-evaluated by the same ultrasound technician using the same equipment and at the same phase of their menstrual cycle. A post treatment urine was also obtained, collected at the same point in the menstrual cycle as the baseline urine sample. Similarly, Subject B was re-evaluated after 6 months of treatment using absorption-enhanced DIM (BioResponse-DIM). They took a higher twice daily dose providing […]. Their re-evaluation included pelvic ultrasonography following a series of 3 pre-treatment pelvic ultrasound evaluations all performed with the same equipment. Like Subject A, Subject B provided a before and after DIM treatment urine sample.
The urine samples were tested at the Bradlow/Sepkovic Laboratory, Hackensack University Medical Center, Hackensack, N.J. The technique utilized was an established gas chromatography-mass spectrometry (GCMS) assay for estradiol (E2), estrone (E1), 2-hydroxy estrone (2OH-E1), 4-hydroxy estrone (4OH-E1), 16-hydroxy estrone (16OH-E1), and estriol (E3) in urine (Michnovicz et al., 1997, J Natl Cancer Inst. 89(10):718-23). […] Laboratory analysis is expected to show an increase in 2-hydroxy estrone, and a decrease in 16-hydroxy estrone, as measured in pre-treatment as compared to post-treatment urine samples. […] Results of before and after DIM treatment are presented in Table 8, showing the metabolites of interest as a percent of the total estrogen metabolites measured and as ratios of the amounts of 2OH-E1 to 16OH-E1 (2OH-E1/16OH-E1) determined for each sample. […]

[3] = test system: uterine leiomyoma; test: Clinical case: oral absorption-enhanced DIM in a person with symptomatic uterine leiomyoma; conditions: after two months
Procedure: A person was symptomatic from uterine leiomyoma, experiencing painful menses with excessive bleeding, frequency of urination, and inability to exercise due to tiredness. […] A blood test indicated mild anemia. […] The patient initiated therapy with capsules of DIM, formulated for enhanced absorption as described in Example 1. A dose of 120 mg of DIM formulation, given three times per day, delivering 30 mg of actual DIM per dose, was used.

[4] = test system: estrogen metabolites in urine; test: GCMS assay of urinary estrogen metabolites before and after DIM treatment
[5] = 30 mg actual DIM three times per day
[6] = Subject A, 200 mg/day DIM, taken for 2 months
[7] = Subject B, 300 mg/day DIM, taken for 6 months

## c1ccc2c(Cc3c[nH]c4ccccc34)c[nH]c2c1 [DIM, 3,3′-diindolylmethane]
[1]; Subject A, 2 month treatment
  average percent reduction in tumor volume: 33.5%
[1]; Subject A, Tumor 1, oral DIM 200 mg/day, 2 months
  Percent Decrease in Tumor Volume: 83.11%
[1]; Subject A, Tumor 1, 200 mg/day DIM, 2 months
  Post-DIM Treatment Tumor Volume: 3.783 cm^3
[1]; Subject A, Tumor 2, oral DIM 200 mg/day, 2 months
  Percent Decrease in Tumor Volume: 2.06%
[1]; Subject A, Tumor 2, 200 mg/day DIM, 2 months
  Post-DIM Treatment Tumor Volume: 114.4901 cm^3
[1]; Subject A, Tumor 3, oral DIM 200 mg/day, 2 months
  Percent Decrease in Tumor Volume: 15.32%
[1]; Subject A, Tumor 3, 200 mg/day DIM, 2 months
  Post-DIM Treatment Tumor Volume: 53.2 cm^3
[1]; Subject B, 6 month treatment
  average reduction in tumor volume: 78.6%
[1]; Subject B, Tumor 1, oral DIM 300 mg/day, 6 months
  Percent Decrease in Tumor Volume: 71.9605%
[1]; Subject B, Tumor 1, 300 mg/day DIM, 6 months
  Post-DIM Treatment Tumor Volume: 5.575 cm^3
[1]; Subject B, Tumor 2, oral DIM 300 mg/day, 6 months
  Percent Decrease in Tumor Volume: 47.75%
[1]; Subject B, Tumor 2, 300 mg/day DIM, 6 months
  Post-DIM Treatment Tumor Volume: 1.877 cm^3
[1]; Subject B, Tumor 3, oral DIM 300 mg/day, 6 months
  Percent Decrease in Tumor Volume: 38.51%
[1]; Subject B, Tumor 3, 300 mg/day DIM, 6 months
  Post-DIM Treatment Tumor Volume: 6.094 cm^3
[1]; Subject B, Tumor 4, oral DIM 300 mg/day, 6 months
  Percent Decrease in Tumor Volume: 53.06%
[1]; Subject B, Tumor 4, 300 mg/day DIM, 6 months
  Post-DIM Treatment Tumor Volume: 0.8849 cm^3
[1]; Subject B, Tumor 5, oral DIM 300 mg/day, 6 months
  Percent Decrease in Tumor Volume: 62.41%
[1]; Subject B, Tumor 5, 300 mg/day DIM, 6 months
  Post-DIM Treatment Tumor Volume: 0.7964 cm^3
[1]; preliminary treatment of women with oral DIM
  leiomyoma size by serial pelvic ultrasound: meaningful reduction of leiomyoma size; also recorded: consistent reduction of intra-uterine leiomyoma size
[1]; women treated with oral DIM, 2 and 6 months
  side effects associated with reduction in leiomyoma volume: not associated with amenorrhea, hypo-estrogenemia, hot flashes, or other reported side effects
[2]; Subject A
  change in 16OH-E1: treatment related reduction
[2]; Subject B, treated at a higher dose
  change in 4OH-E1: treatment related reduction
[2]; both Subjects
  change in 2OH-E1 and the 2OH-E1/16OH-E1 ratio: large treatment related increases
[3]; [5]
  repeat abdominal exam: no visible or palpable pelvic masses
  repeat pelvic exam: normal appearing uterine cervix and a palpable uterus of much reduced size
[3]; 120 mg DIM formulation (30 mg actual DIM) three times per day
  myoma-related symptoms described by the patient: normal menstrual flow with normal levels of discomfort and improved energy
[4]; [6]
  2OH-E1/16OH-E1 ratio, After DIM: 1.7
  2OH-Estrone (2OH-E1), percent of total estrogen metabolites measured, After DIM: 8.3%
  4OH-Estrone (4OH-E1), percent of total estrogen metabolites measured, After DIM: 0.7%
  16OH-Estrone (16OH-E1), percent of total estrogen metabolites measured, After DIM: 4.9%
[4]; [7]
  2OH-E1/16OH-E1 ratio, After DIM: 9.5
  2OH-Estrone (2OH-E1), percent of total estrogen metabolites measured, After DIM: 35%
  4OH-Estrone (4OH-E1), percent of total estrogen metabolites measured, After DIM: 1.7%
